Experimental data reported in PMC10333884, “Large‐scale phosphomimetic screening identifies phospho‐modulated motif‐based protein interactions” (Molecular Systems Biology, 2023).
Read-outs that look alike come from different tables or passages of the source. Non-standard residues stand in square brackets, D forms with d. Residues, ends and D or L forms follow the SMILES beside them. pT = C[C@@H](OP(=O)(O)O)[C@H](N)C(=O)O; pS = N[C@@H](COP(=O)(O)O)C(=O)O

How the values were obtained:
Type in all cases: binding
[1] = target: T1, GABARAPL2 (Homo sapiens, UniProt P60520); assay: FP displacement assay, GABARAPL2
T1 construct: GABARAPL2_ATG8__P60520_2_115; GST (cleaved yes); made in house; host or cells: Escherichia coli BL21-Gold(DE3)
T1 sequence (P60520 2-115): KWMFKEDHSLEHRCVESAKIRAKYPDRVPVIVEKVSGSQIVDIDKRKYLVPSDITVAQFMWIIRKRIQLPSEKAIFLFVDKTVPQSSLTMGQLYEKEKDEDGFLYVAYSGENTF
Procedure: (§1) FP experiments were performed as described previously (Kliche et al, [2021]). Shortly, in order to monitor the binding event, FITC‐labelled peptides were used (excitation 495 nm, emission: 535 nm) and the FP signal was recorded in mP on a SpectraMax iD5 Multi‐Mode Microplate Reader (Molecular Devices) by measuring the emitted light in two angels. The measurements were performed at room temperature and prepared in nonbinding black half area 96‐well microplates (Corning®; 50 μl/well). For measuring direct binding, that is saturation curves, a 1:1 dilution series of protein domain (25 μl/well) was generated in 50 mM sodium phosphate buffer pH 7.4 and the measurement performed with 5 nM FITC‐labelled peptide (25 μl/well). The buffer‐corrected values were subsequently plotted with PRISM and fitted to the quadratic equation (Gianni et al, [2005]).
(§2) The 1:1 dilution series in this experiment was performed with the unlabelled peptide in 50 mM sodium phosphate buffer pH 7.4, so that each well‐contained unlabelled peptide (25 μl) at a certain concentration and pre‐formed complex (25 μl). The KD values of this indirectly monitored binding event were calculated as described previously (Nikolovska‐Coleska et al, [2004]). All measurements were at least in technical triplicates as well as biological duplicates when indicated. An amplitude shift between repeat measurements in the displacement experiments was occasionally observed due to variations in the protein preparations. If that was the case, the “active” protein concentration was back‐calculated according to the quadratic equation from the saturation curves performed in parallel. By comparing the active protein concentrations in the complex between different protein preparations, the amplitude was normalised.

[2] = target: T2, MAP1LC3B (Homo sapiens, UniProt Q9GZQ8); assay: FP displacement assay, MAP1LC3B; conditions: read-out: KD values ± SEM
T2 construct: GST (cleaved yes); made in house; host or cells: Escherichia coli BL21-Gold(DE3)
Procedure: as §1, §2

[3] = target: T3, MAP1LC3B ATG8 (Homo sapiens, UniProt Q9GZQ8); assay: ITC, MAP1LC3B ATG8; conditions: for Kd: ITC (iTC200), 50 mM sodium phosphate pH 7.4, 1 mM DTT, average of the runs, at least technical triplicates
T3 construct: MAP1LC3B ATG8; made in house; host or cells: Escherichia coli BL21-Gold(DE3)

[4] = target: T4, KPNA4 ARM Major (Homo sapiens, UniProt O00629); assay: FP displacement assay, KPNA4 ARM major pocket; conditions: for IC50: Fig 3E, KPNA4 ARM major, technical triplicates, read-out: IC50 values of displacement curves, with SEM; for Kd: major pocket probe FITC-MYC 5 nM, 50 mM sodium phosphate pH 7.4, room temperature, at least three technical replicates, read-out: KD values ± SEM
T4 construct: 60-487; GST (cleaved yes); made in house; host or cells: Escherichia coli BL21-Gold(DE3)
T4 sequence (O00629 60-487): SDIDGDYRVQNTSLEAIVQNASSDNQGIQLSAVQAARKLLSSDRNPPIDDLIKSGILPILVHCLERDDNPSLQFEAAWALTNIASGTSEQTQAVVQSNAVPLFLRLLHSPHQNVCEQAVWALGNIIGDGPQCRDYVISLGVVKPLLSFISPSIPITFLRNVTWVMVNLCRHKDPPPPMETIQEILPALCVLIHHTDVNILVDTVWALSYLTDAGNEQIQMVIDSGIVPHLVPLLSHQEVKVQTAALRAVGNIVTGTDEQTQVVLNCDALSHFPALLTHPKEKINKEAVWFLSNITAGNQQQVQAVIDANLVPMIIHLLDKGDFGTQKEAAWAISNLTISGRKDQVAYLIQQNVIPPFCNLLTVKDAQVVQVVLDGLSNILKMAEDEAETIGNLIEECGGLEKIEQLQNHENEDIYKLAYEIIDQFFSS
Procedure: as §1, §2

[5] = target: T5, KPNA4 ARM minor (Homo sapiens, UniProt O00629); assay: FP displacement assay, KPNA4 ARM minor pocket; conditions: for IC50: Fig 3E, KPNA4 ARM minor, technical triplicates, read-out: IC50 values of displacement curves, with SEM; for Kd: minor pocket probe FITC-NCOR2 5 nM, 50 mM sodium phosphate pH 7.4, room temperature, at least three technical replicates, read-out: KD values ± SEM
T5 construct: 60-487; GST (cleaved yes); made in house; host or cells: Escherichia coli BL21-Gold(DE3)
T5 sequence (O00629 60-487): as above
Procedure: as §1, §2

[6] = target: T6, MAP1LC3A (Homo sapiens, UniProt Q9H492); assay: FP displacement assay, MAP1LC3A
T6 construct: GST (cleaved yes); made in house; host or cells: Escherichia coli BL21-Gold(DE3)

[7] = ITC single run: date 200402, injection 1
[8] = ITC single run: date 200402, injection 2
[9] = ITC single run: date 200402, injection 3

Structure (SMILES) | Kd ([1]; read-out: KD values ± SEM) | Kd [2] | Kd [4] | Kd [5] | further results
CC(=O)N[C@@H](C)C(=O)N[C@@H](CC(N)=O)C(=O)N[C@@H](CO)C(=O)N[C@@H](Cc1c[nH]c2ccccc12)C(=O)N[C@@H](CCC(N)=O)C(=O)N[C@@H](CC(C)C)C(=O)N[C@H](C(=O)N[C@@H](CCC(=O)O)C(=O)N[C@H](C(=O)N1CCC[C@H]1C(=O)N[C@@H](CCC(=O)O)C(=O)N[C@@H](CCCCN)C(=O)N[C@@H](CCCNC(=N)N)C(=O)N[C@@H](CCCCN)C(=O)N[C@@H](CCC(=O)O)C(=O)N[C@@H](CCC(=O)O)C(N)=O)[C@@H](C)O)C(C)C [DLGAP4_907–922 wt] (Ac-ANSWQLVETPEKRKEE-NH2) | 174 ± 22 µM | – | – | – | –
CC(=O)N[C@@H](CCC(N)=O)C(=O)N[C@@H](CC(N)=O)C(=O)N[C@@H](CC(C)C)C(=O)N[C@@H](CO)C(=O)N[C@@H](CCCNC(=N)N)C(=O)N[C@@H](COP(=O)(O)O)C(=O)N[C@@H](Cc1c[nH]c2ccccc12)C(=O)N[C@@H](Cc1c[nH]cn1)C(=O)N[C@@H](CC(=O)O)C(=O)N[C@H](C(=O)N[C@@H](CCC(N)=O)C(=O)N[C@H](C(=O)N[C@@H](CO)C(=O)N[C@@H](CO)C(=O)N[C@@H](C)C(=O)N[C@@H](Cc1ccc(O)cc1)C(N)=O)C(C)C)C(C)C [TPD52L2_91–106 pS] | – | 61 ± 2 µM | – | – | –
CC(=O)N[C@@H](CC(C)C)C(=O)N[C@@H](CCC(=O)O)C(=O)N[C@@H](CC(=O)O)C(=O)N[C@@H](CC(=O)O)C(=O)N[C@@H](CCC(=O)O)C(=O)N[C@@H](CCC(N)=O)C(=O)N[C@@H](Cc1ccccc1)C(=O)N[C@H](C(=O)N[C@@H](CO)C(=O)N[C@@H](CC(C)C)C(=O)N[C@@H](Cc1ccc(O)cc1)C(=O)NCC(=O)N[C@H](C(=O)N[C@@H](CCC(=O)O)C(=O)N[C@@H](CCC(=O)O)C(=O)N[C@@H](Cc1ccc(O)cc1)C(N)=O)[C@@H](C)O)C(C)C [TBK1_164–179 wt] | 19 ± 4 µM | 10.5 ± 0.1 µM | – | – | Kd [3]: 8 µM; Ka ([3]; ITC single run: date 2101 new, injection 1): 84300; Ka [3, 7]: 143000; Ka [3, 8]: 170000; Ka [3, 9]: 144000
CC(=O)N[C@@H](CC(N)=O)C(=O)N[C@@H](Cc1ccc(O)cc1)C(=O)N[C@@H](C)C(=O)N1CCC[C@H]1C(=O)N1CCC[C@H]1C(=O)N[C@H](C(=O)N[C@@H](CCCCN)C(=O)N[C@@H](CCCNC(=N)N)C(=O)N[C@@H](CCC(=O)O)C(=O)N[C@@H](CCCNC(=N)N)C(=O)N[C@H](C(=O)N[C@@H](CO)C(=O)N[C@@H](CO)C(=O)N[C@@H](CC(C)C)C(=O)N[C@H](C(=O)N[C@@H](CCC(N)=O)C(N)=O)[C@@H](C)O)[C@@H](C)O)C(C)C [RANBP3_114–129 wt] (Ac-NYAPPVKRERTSSLTQ-NH2) | – | – | 0.15 ± 0.01 µM | 68 ± 4 µM | IC50 [4]: 1.3 ± 0.2 µM; IC50 [5]: 325 ± 34 µM
CC(=O)N[C@@H](C)C(=O)N[C@@H](CC(N)=O)C(=O)N[C@@H](CO)C(=O)N[C@@H](Cc1c[nH]c2ccccc12)C(=O)N[C@@H](CCC(N)=O)C(=O)N[C@@H](CC(C)C)C(=O)N[C@H](C(=O)N[C@@H](CCC(=O)O)C(=O)N[C@H](C(=O)N1CCC[C@H]1C(=O)N[C@@H](CCC(=O)O)C(=O)N[C@@H](CCCCN)C(=O)N[C@@H](CCCNC(=N)N)C(=O)N[C@@H](CCCCN)C(=O)N[C@@H](CCC(=O)O)C(=O)N[C@@H](CCC(=O)O)C(N)=O)[C@@H](C)OP(=O)(O)O)C(C)C [DLGAP4_907–922 pS] (Ac-ANSWQLVE[pT]PEKRKEE-NH2) | – | – | – | – | Kd [1]: 150 ± 32 µM
CC(=O)N[C@@H](Cc1ccc(O)cc1)C(=O)N[C@@H](CCCCN)C(=O)N[C@@H](CCCCN)C(=O)N[C@@H](CCC(N)=O)C(=O)N[C@@H](CC(C)C)C(=O)N[C@@H](CCCCN)C(=O)N[C@@H](CCCNC(=N)N)C(=O)N[C@@H](Cc1ccccc1)C(=O)N[C@@H](COP(=O)(O)O)C(=O)N[C@H](C(=O)N[C@@H](CCC(=O)O)C(=O)N[C@@H](CCC(=O)O)C(=O)N[C@@H](Cc1ccccc1)C(=O)N[C@H](C(=O)N[C@@H](CC(C)C)C(=O)N[C@@H](CC(C)C)C(=O)O)C(C)C)[C@@H](C)O [ATG4C444–458 pS] | 0.1 ± 0.2 µM | 1.9 ± 0.3 µM | – | – | IC50 ([6]; Fig 4B, MAP1LC3A ATG8, FP displacement, technical triplicates, read-out: IC50 values of displacement curves, with SEM): 5.5 ± 0.7 µM; Kd ([6]; read-out: KD values ± SEM): 1.3 ± 0.1 µM
CC(=O)N[C@@H](CCC(N)=O)C(=O)N[C@@H](CC(N)=O)C(=O)N[C@@H](CC(C)C)C(=O)N[C@@H](CO)C(=O)N[C@@H](CCCNC(=N)N)C(=O)N[C@@H](CO)C(=O)N[C@@H](Cc1c[nH]c2ccccc12)C(=O)N[C@@H](Cc1c[nH]cn1)C(=O)N[C@@H](CC(=O)O)C(=O)N[C@H](C(=O)N[C@@H](CCC(N)=O)C(=O)N[C@H](C(=O)N[C@@H](CO)C(=O)N[C@@H](CO)C(=O)N[C@@H](C)C(=O)N[C@@H](Cc1ccc(O)cc1)C(N)=O)C(C)C)C(C)C [TPD52L2_91–106 wt] | – | 760 ± 150 µM | – | – | –
CC(=O)NCC(=O)N[C@@H](C)C(=O)N[C@@H](CO)C(=O)N1CCC[C@H]1C(=O)N[C@@H](C)C(=O)N[C@@H](CC(C)C)C(=O)N[C@@H](CCCCN)C(=O)N[C@@H](CCCNC(=N)N)C(=O)N[C@@H](CO)C(=O)N[C@@H](Cc1c[nH]cn1)C(=O)N[C@@H](CO)C(=O)N[C@@H](CC(=O)O)C(=O)N[C@@H](CO)C(=O)N[C@@H](Cc1ccc(O)cc1)C(N)=O [CDC25A114–125 wt] (Ac-GASPALKRSHSDSY-NH2) | – | – | 8.8 ± 0.2 µM | 0.2 ± 0.004 µM | –
CC(=O)N[C@@H](CC(N)=O)C(=O)N[C@@H](Cc1ccc(O)cc1)C(=O)N[C@@H](C)C(=O)N1CCC[C@H]1C(=O)N1CCC[C@H]1C(=O)N[C@H](C(=O)N[C@@H](CCCCN)C(=O)N[C@@H](CCCNC(=N)N)C(=O)N[C@@H](CCC(=O)O)C(=O)N[C@@H](CCCNC(=N)N)C(=O)N[C@H](C(=O)N[C@@H](CO)C(=O)N[C@@H](CO)C(=O)N[C@@H](CC(C)C)C(=O)N[C@H](C(=O)N[C@@H](CCC(N)=O)C(N)=O)[C@@H](C)O)[C@@H](C)OP(=O)(O)O)C(C)C [RANBP3_114–129 pS (p + 5)] (Ac-NYAPPVKRER[pT]SSLTQ-NH2) | – | – | 1.13 ± 0.05 µM | 167 ± 9 µM | IC50 [4]: 10 ± 1 µM; IC50 [5]: 800 ± 75 µM
CC(=O)N[C@@H](CC(C)C)C(=O)N[C@@H](CCC(=O)O)C(=O)N[C@@H](CC(=O)O)C(=O)N[C@@H](CC(=O)O)C(=O)N[C@@H](CCC(=O)O)C(=O)N[C@@H](CCC(N)=O)C(=O)N[C@@H](Cc1ccccc1)C(=O)N[C@H](C(=O)N[C@@H](COP(=O)(O)O)C(=O)N[C@@H](CC(C)C)C(=O)N[C@@H](Cc1ccc(O)cc1)C(=O)NCC(=O)N[C@H](C(=O)N[C@@H](CCC(=O)O)C(=O)N[C@@H](CCC(=O)O)C(=O)N[C@@H](Cc1ccc(O)cc1)C(N)=O)[C@@H](C)O)C(C)C [TBK1_164–179 pS] | 2.8 ± 0.6 µM | 1.3 ± 0.3 µM | – | – | Kd [3]: 2.67 µM; Ka [3, 7]: 270000; Ka [3, 8]: 480000; Ka [3, 9]: 520000
CC(=O)N[C@@H](CC(=O)O)C(=O)N[C@H](C(=O)N[C@@H](CCC(=O)O)C(=O)N[C@@H](Cc1c[nH]cn1)C(=O)NCC(=O)NCC(=O)N[C@@H](CCCCN)C(=O)N[C@@H](CCCNC(=N)N)C(=O)N[C@@H](CO)C(=O)N[C@@H](CCCNC(=N)N)C(=O)N[C@@H](CC(C)C)C(=O)N[C@H](C(=O)N1CCC[C@H]1C(=O)N[C@H](C(=O)N[C@@H](CO)C(=O)N[C@@H](Cc1ccc(O)cc1)C(N)=O)C(C)C)[C@@H](C)O)C(C)C [SQSTM1_258–272 wt] (Ac-DVEHGGKRSRLTPVSY-NH2) | – | – | 0.24 ± 0.04 µM | 14 ± 0.7 µM | –
CC(=O)NCC(=O)N[C@@H](C)C(=O)N[C@@H](COP(=O)(O)O)C(=O)N1CCC[C@H]1C(=O)N[C@@H](C)C(=O)N[C@@H](CC(C)C)C(=O)N[C@@H](CCCCN)C(=O)N[C@@H](CCCNC(=N)N)C(=O)N[C@@H](CO)C(=O)N[C@@H](Cc1c[nH]cn1)C(=O)N[C@@H](CO)C(=O)N[C@@H](CC(=O)O)C(=O)N[C@@H](CO)C(=O)N[C@@H](Cc1ccc(O)cc1)C(N)=O [CDC25A114–125 pS] (Ac-GA[pS]PALKRSHSDSY-NH2) | – | – | 0.63 ± 0.04 µM | 2.8 ± 0.4 µM | –
